# According to patent US10260108B2, “PARP genomic variants conferring resistance and sensitization to chemotherapy under inhibition” (University of Pittsburgh—Of the Commonwealth System of …, priority 2014, dated 2019):
# How the values were obtained:
# FEMX = assay: MTT cell proliferation assay, MMS alone or with ABT-888; type: cell-based; conditions: Homo sapiens, Fem-X, FEMX melanoma, PARP1/SNP T/T, MMS alone, 72 h, mean (±SD)
# Source text: (§1) PARP1 cell proliferation and drug interaction assays: RPMI 1640 and Dulbecco's modified Eagle medium (DMEM) with L-Glutamine, cell culture media were purchased from Cellgro (Mediatech, Inc.). Heat-inactivated Foundation Fetal bovine serum (FBS) was purchased from Gemini bio-products. The alkylating agent, methyl methanesulfonate (MMS) was purchased from Sigma. The PARPi veliparib (ABT-888, Abbott Laboratories, Abbott Park, Ill., USA) was used in the cell proliferation assays. The ABT-888 used in the drug interaction assays was purchased from Selleck Chemicals LLC (Huston, Tex., USA). MMS is an alkylating agent that results in DNA damage at the same bases as dacarbazine and temozolomide and has been used extensively as an alternative in the laboratory setting. ABT-888 was dissolved in dimethyl sulfoxide (DMSO) to a stock solution of 10 mM. A 10 μM working solution was then prepared in PBS for subsequent serial dilutions.
# (§2) The cytotoxic effect of the PARP inhibitor veliparib (ABT-888) and the alkylating agent, MMS was assessed using the MTT colorimetric dye reduction assay, according to the manufacturer's instructions (TACS® MTT Cell Proliferation Assay (MTT-CPA) from Trevigen, Inc.). MTT assay was used for each cell line to determine the half-maximal (50%) inhibitory concentration (IC50) values of MMS alone or in combination with ABT-888. Briefly, cells were seeded in triplicates in 96 wells at appropriate cell density (optimized for each individual cell line to have exponentially growing cells during the course of the assay), in their regular culture medium (DMEM with L-Glutamine from Cellgro (Mediatech, Inc.)). After 24 h, the medium was aspirated and the cells were incubated with increasing concentrations of MMS alone (0 to 1 mM) or in the presence of a fixed concentration (10 nM final) of ABT-888 (six replicates for each combination treatment) for 72 h at 37° C. Then, 10 μl of MTT Reagent was added to each well and the plates were incubated for another 4 h at 37° C. in the dark. In each well, 100 μl of Detergent Reagent was then added and incubated at 37° C. until complete solubilization of formazan crystals.
# (§3) In single drug treatment experiments (MMS alone), drug-free controls containing 0.5% DMSO were included. In drug combination experiments with increasing concentrations of MMS, the samples with PARPi alone (fixed concentration of 10 nM of ABT-888), were used as controls. All control values were normalized to 100%. Cell viability was measured by reading the absorbance at 570 nm using a Tecan (Safire 2) microplate reader. Reading was converted to the percentage of the controls. The values obtained for each of the triplicates were averaged, and IC50 values were defined as the concentrations of drug(s) that inhibited growth by 50% relative to controls. The data from the MTT assay were expressed as mean IC50±standard deviation (SD). The IC50 of ABT-888, MMS and linear regression analysis were computed by […] Prism 5.0 program ([…] Software, Inc., San Diego, Calif.). For each cell line, the P-value was calculated using the Student t-test (two-tailed, paired) to compare the IC50 means of each treatment group (MMS alone or MMS+ABT-888).
# M14 = assay: as above; type: cell-based; conditions: Homo sapiens, M14 melanoma, PARP1/SNP C/T, MMS alone, 72 h, mean (±SD)
# Source text: as §1, §2, §3
# MDA-MB-231 = assay: as above; type: cell-based; conditions: Homo sapiens, MDA-MB-231 breast, PARP1/SNP C/T, MMS alone, 72 h, mean (±SD)
# Source text: as §1, §2, §3
# MCF-7 = assay: as above; type: cell-based; conditions: Homo sapiens, MCF7, MCF-7 breast, PARP1/SNP C/T, MMS alone, 72 h, mean (±SD)
# Source text: as §1, §2, §3
# A375 = assay: as above; type: cell-based; conditions: Homo sapiens, A-375, A375 melanoma, PARP1/SNP T/T, MMS alone, 72 h, mean (±SD)
# Source text: as §1, §2, §3
# SW620 = assay: as above; type: cell-based; conditions: Homo sapiens, SW-620, SW620 colon, PARP1/SNP T/T, MMS alone, 72 h, mean (±SD)
# Source text: as §1, §2, §3
# H-522 = assay: as above; type: cell-based; conditions: Homo sapiens, NCI-H522, H-522 lung, PARP1/SNP T/T, MMS alone, 72 h, mean (±SD)
# Source text: as §1, §2, §3
# A549 = assay: as above; type: cell-based; conditions: Homo sapiens, A549 lung, PARP1/SNP C/T, MMS alone, 72 h, mean (±SD)
# Source text: as §1, §2, §3
# A2780 = assay: as above; type: cell-based; conditions: Homo sapiens, A2780 ovarian, PARP1/SNP C/T, MMS alone, 72 h, mean (±SD)
# Source text: as §1, §2, §3
# [1] = test system: metastatic melanoma patients; assay: Response to TMZ treatment in metastatic melanoma patients by rs1805407 genotype; type: in vivo, human; conditions: all 21 patients that had the SNP rs1805407 (C/T or C/C)
# Source text: The melanoma dataset consisted of whole genome gene expression, microRNA expression, DNA methylation, and data from the selected SNP panel. MGM-Learn was used to learn a network over the top 1000 features most correlated (pairwise) with “response” to treatment clinical variable, a binary variable indicating response/no response to temozolomide (TMZ) treatment dichotomized at presence of a response or stability of disease at 4 months of therapy. The 1,000 most correlated features in the input dataset included 557 mRNA expression probes, 425 methylation probes, 14 miRNA probes and 4 SNPs. […] The largest interconnected output network included 20 features connected to the response variable in our initial (undirected) learned network (FIG. 2A). It was emphasized that these features were connected to the response variable not only because they have high pairwise correlation with it (FIG. 2B), but also because they are dependent on response even when conditioned on all other variables included in the input. In this sense, they represent direct (causal) interactions and not simple biomarkers. From the 20 features initially connected to response, 15 were left connected after causal filtering (FIG. 2A, black lines). […]
# Melanoma study design: Using a retrospective cohort study design, 69 patients with metastatic melanoma who were treated with alkylator-based chemotherapy were evaluated. […]
# NCI-60 cell lines = assay: NCI-60 […] IC50 values, cell lines with rs1805407 vs wild type; type: cell-based; conditions: NCI60 IC50 values, C/T or C/C (n=23) vs T/T (n=37)
# Source text: Given that TMZ damages the DNA and PARP1 has a critical role in DNA repair, one plausible hypothesis is that rs1805407 is either associated with increased PARP1 activity or decreased PARP1 trapping after treatment with alkylating agents (Murai J, et al. (2012) Cancer Res 72(21):5588-5599). The role of rs1805407 in cell response to various drugs was investigated. The NCI-60 […]™ database (Reinhold W C, et al. (2012) Cancer Res 72(14):3499-3511) contains the response of 60 cell lines to ˜50,000 compounds. It was evaluated whether drugs affect differentially the cell lines that have at least one copy of rs1805407 (C/T or C/C) vs wild type (T/T).
# SNP imputation on TCGA samples and NCI-60 cell lines: NCI-60 data were obtained from Cell Miner in June 2013 (discover.nci_nih.gov/cellminer/). For those cell lines or TCGA samples for which the identity of SNP rs1805407 was not available we used imputation to infer its identity. Using SNAP (17) we found 51 SNPs to be in perfect linkage disequilibrium (LD) with rs1805407 (R^2=1). Of these, 9 variants were covered by the Affymetrix SNP Array 6.0 used by the TCGA. To determine the rs1805407 genotype in TCGA samples birdseed calls (Korn J M, et al. (2008) Nature genetics 40(10):1253-126) from Affymetrix Genome-Wide Human SNP Array 6.0 were used. Only samples with a birdseed confidence less than 0.1 or where all 9 SNPs in perfect LD agreed with the birdseed call were used.
smiles,measurement,setting,value
"COS(C)(=O)=O [MMS, methyl methanesulfonate]",IC50,FEMX,166 µM
same,IC50,M14,521 µM
same,IC50,MDA-MB-231,260 µM
same,IC50,MCF-7,193 µM
same,IC50,A375,306 µM
same,IC50,SW620,299 µM
same,IC50,H-522,578 µM
same,IC50,A549,255 µM
same,IC50,A2780,190 µM
"Cn1nnc2c(C(N)=O)ncn2c1=O [TMZ, temozolomide]",response to TMZ treatment,[1],no response
O=P1(N(CCCl)CCCl)NCCCO1 (centres unmarked) [Cyclophosphamide],resistance or sensitivity of cell lines with at least one allele of rs1805407 vs wild type,NCI-60 cell lines,Increased resistance
O=NN(CCCl)C(=O)NCCCl [Carmustine],resistance or sensitivity of cell lines with at least one allele of rs1805407 vs wild type,NCI-60 cell lines,Increased resistance
"CC1=C(CO)C2=C(C)C3(CC3)[C@@](C)(O)C(=O)C2=C1 [Irofulven, Hydroxymethylacylfulvene]",resistance or sensitivity of cell lines with at least one allele of rs1805407 vs wild type,NCI-60 cell lines,Increased sensitivity
O=C(c1cc(Cc2n[nH]c(=O)c3ccccc23)ccc1F)N1CCN(C(=O)C2CC2)CC1 [olaparib],resistance or sensitivity of cell lines with at least one allele of rs1805407 vs wild type,NCI-60 cell lines,slight increase in sensitivity
